Activity calls are given as the source filed them. The rule behind the calls is not given here.
What was measured:
[1] = test system: Mycolicibacterium smegmatis; assay: Antimicrobial activity against Mycobacterium smegmatis ATCC 607 at 100 mcg/mL by agar dilution-streak method; type: functional, organism-based
[2] = test system: Klebsiella pneumoniae; assay: Antimicrobial activity against Klebsiella pneumoniae ATCC 10031 at 100 mcg/mL by agar dilution-streak method; type: functional, organism-based
[3] = test system: Candida albicans; assay: Antimicrobial activity against Candida albicans ATCC 10231 at 100 mcg/mL by agar dilution-streak method; type: functional, organism-based
[4] = test system: Salmonella enterica subsp. enterica serovar Gallinarum; assay: Antimicrobial activity against Salmonella gallinarum ATCC 9184 at 100 mcg/mL by agar dilution-streak method; type: functional, organism-based
[5] = test system: Staphylococcus aureus; assay: Antimicrobial activity against Staphylococcus aureus ATCC 13709 at 100 mcg/mL by agar dilution-streak method; type: functional, organism-based
[6] = test system: Escherichia coli; assay: Antimicrobial activity against Escherichia coli ATCC 9637 at 100 mcg/mL by agar dilution-streak method; type: functional, organism-based
[7] = test system: Staphylococcus aureus; assay: Antimicrobial activity against Staphylococcus aureus ATCC 13709 by agar dilution-streak method; type: functional
[8] = test system: Klebsiella pneumoniae; assay: Antimicrobial activity against Klebsiella pneumoniae ATCC 10031 by agar dilution-streak method; type: functional
[9] = test system: Mycolicibacterium smegmatis; assay: Antimicrobial activity against Mycobacterium smegmatis ATCC 607 by agar dilution-streak method; type: functional
[10] = test system: Candida albicans; assay: Antimicrobial activity against Candida albicans ATCC 10231 by agar dilution-streak method; type: functional

Q: For `COc1cc(O)cc2c1CC[C@H](c1ccccc1)O2`, which Activity [1] is on record?
A: The Activity was “inactive”.

Q: What about the Activity [2] of the same compound?
A: Its Activity is “inactive”.

Q: And the Activity [3]?
A: The Activity was “inactive”.

Q: What about the Activity [4] of the same compound?
A: The Activity was “inactive”.

Q: What about the Activity [5] of the same compound?
A: The Activity was “inactive”.

Q: What about the Activity [6] of the same compound?
A: Its Activity is “inactive”.

Q: With `COc1c2ccc(-c3ccccc3)oc-2cc(=O)c1C` [DRACORHODIN] as the compound, how does the Activity [7] read?
A: The Activity was 50 µg/mL.

Q: And the Activity [8]?
A: The Activity was 100 µg/mL.

Q: And the Activity [9]?
A: The Activity was 25 µg/mL.

Q: What about the Activity [4] of the same compound?
A: The Activity was “inactive”.

Q: And the Activity [6]?
A: The Activity was “inactive”.

Q: And the Activity [10]?
A: The Activity was 25 µg/mL.

Q: Which results are given for `COc1cc(=O)cc2oc(-c3ccccc3)ccc1-2`?
A: Activity [1]: inactive; Activity [2]: inactive; Activity [3]: inactive; Activity [4]: inactive; Activity [5]: inactive; Activity [6]: inactive

Q: Which results are given for `COc1cc2oc3c(C)c(=O)cc4oc(-c5ccccc5)cc(c2c2c1CC[C@@H](c1ccccc1)O2)c43` [DRACORUBIN]?
A: Activity [7]: 50 µg/mL; Activity [2]: inactive; Activity [9]: 25 µg/mL; Activity [4]: inactive; Activity [6]: inactive; Activity [10]: 12.5 µg/mL

Q: For `COc1cc2oc3cc(=O)cc4oc(-c5ccccc5)cc(c2c2c1CC[C@@H](c1ccccc1)O2)c43`, which Activity [1] is on record?
A: Its Activity is “inactive”.

Q: And the Activity [2]?
A: The Activity was “inactive”.

Q: And the Activity [3]?
A: The Activity was “inactive”.

Q: What about the Activity [4] of the same compound?
A: Its Activity is “inactive”.

Q: What about the Activity [5] of the same compound?
A: Its Activity is “inactive”.

Q: And the Activity [6]?
A: The Activity was “inactive”.
